Experimental data from ChEMBL document CHEMBL1151209, “New quassinoids, javanicolides C and D and javanicosides B--F, from seeds of Brucea javanica” (J Nat Prod, 2004).
In brackets after ≈: the same amount, converted by molar mass.

Test system: P388
Assay: Cytotoxicity against mouse P388 cells after 48 hrs by MTT assay
Format: functional, cell-based
Conditions: P388, 48 h

Which IC50 does the source give for `COC(=O)[C@@]12OC[C@]34[C@H]([C@@H](O)[C@@H]1O)[C@@]1(C)C[C@@H](O)[C@@H](O)[C@@H](C)[C@@H]1C[C@H]3OC(=O)[C@H](OC(=O)C=C(C)C)[C@@H]24` [JAVANICOLIDE C] here?
Its IC50 is greater than 100 µg/mL.

For `COC(=O)[C@@]12OC[C@]34[C@H]([C@@H](O)[C@@H]1O)[C@@]1(C)[C@H](O)[C@@H](O)C=C(C)[C@@H]1C[C@H]3OC(=O)[C@H](OC(=O)/C=C(\C)C(C)(C)O)[C@@H]24` [JAVANICOLIDE D], which IC50 is on record?
The IC50 was 18 µg/mL (≈ 31.8 µM).

With `COC(=O)[C@@]12OC[C@]34[C@H]([C@@H](O)[C@@H]1O)[C@@]1(C)C(=O)C(O[C@@H]5O[C@H](CO)[C@@H](O)[C@H](O)[C@H]5O)=C[C@@H](C)[C@@H]1C[C@H]3OC(=O)[C@H](OC(=O)CC(C)C)[C@@H]24` [JAVANICOSIDE B] as the compound, how does the IC50 read?
The IC50 was 5.6 µg/mL (≈ 8.18 µM).

`COC(=O)[C@@]12OC[C@@]34[C@@H](CC5=C(C)C(=O)C(O[C@@H]6O[C@H](CO)[C@@H](O)[C@H](O)[C@H]6O)=C[C@]5(C)[C@H]3[C@@H](O)[C@@H]1O)OC(=O)[C@H](OC(=O)C=C(C)C)[C@@H]24` [JAVANICOSIDE C] was tested. Which IC50 did it give?
The IC50 was 18 µg/mL (≈ 26.4 µM).

`CC/C(=C\C(=O)O[C@H]1C(=O)O[C@@H]2C[C@H]3[C@H](C)C(=O)C(O[C@@H]4O[C@H](CO)[C@@H](O)[C@H](O)[C@H]4O)=C[C@]3(C)[C@H]3[C@@H](O)[C@H](O)[C@@]4(C(=O)OC)OC[C@]32[C@@H]14)C(C)(C)O` [JAVANICOSIDE D] was tested. Which IC50 did it give?
Its IC50 is 89 µg/mL (≈ 120 µM).

How did the IC50 turn out when `COC(=O)[C@@]12OC[C@]34[C@H]([C@@H](O)[C@@H]1O)[C@@]1(C)C=C(O[C@@H]5O[C@H](CO)[C@@H](O)[C@H](O)[C@H]5O)C(=O)[C@@H](C)[C@@H]1C[C@H]3OC(=O)[C@H](OC(=O)CC(C)C(C)(C)OC(C)=O)[C@@H]24` (some centres not stated) [JAVANICOSIDE E] was run?
The IC50 was 16 µg/mL (≈ 20.8 µM).

With `CC/C(C)=C/C(=O)O[C@H]1C(=O)O[C@@H]2C[C@H]3[C@H](C)C(=O)C(O[C@@H]4O[C@H](CO)[C@@H](O)[C@H](O)[C@H]4O)=C[C@]3(C)[C@H]3[C@@H](O)[C@H](O)[C@@]4(C(=O)OC)OC[C@]32[C@@H]14` [JAVANICOSIDE F] as the compound, how does the IC50 read?
The IC50 was 50 µg/mL (≈ 71.8 µM).
